# Structures can show the parent of a compound that is named as a salt. Where two headings read alike, the source gives them in different places.
# Key:
# Format in all cases: cell-based, Human
# [1] = tested on: MCF7 WT Parental pool; assay: Drug screening, resazurin, MCF7 wild type parental pool; conditions: for area under the curve (AUC): PR WT Pool, ten day drug treatment (Table 3)
# [2] = tested on: MCF7 TP53 KO 3.4 pool; assay: Drug screening, resazurin, TP53 KO 3.4 pool
# [3] = tested on: MCF7 TP53 KO 5.6 pool; assay: Drug screening, resazurin, TP53 KO 5.6 pool
# [4] = tested on: MCF7 PR WT A8; assay: Drug treatment of single cell clone PR WT A8; conditions: ten day drug treatment; also: unit not given here
# [5] = tested on: MCF7 PR WT B8; assay: Drug treatment of single cell clone PR WT B8; conditions: ten day drug treatment; also: unit not given here
# [6] = tested on: MCF7 PR WT C7; assay: Drug treatment of single cell clone PR WT C7; conditions: ten day drug treatment; also: unit not given here
# [7] = tested on: MCF7 PR WT G2; assay: Drug treatment of single cell clone PR WT G2; conditions: ten day drug treatment; also: unit not given here
# [8] = tested on: MCF7 TP53 KO 34 B5; assay: Drug treatment of single cell clone KO 34 B5; conditions: ten day drug treatment; also: unit not given here
# [9] = tested on: MCF7 TP53 KO 34 D4; assay: Drug treatment of single cell clone KO 34 D4; conditions: ten day drug treatment; also: unit not given here
# [10] = tested on: MCF7 TP53 KO 34 E1; assay: Drug treatment of single cell clone KO 34 E1; conditions: ten day drug treatment
# [11] = tested on: MCF7 TP53 KO 56 A4; assay: Drug treatment of single cell clone KO 56 A4; conditions: ten day drug treatment
# [12] = tested on: MCF7 TP53 KO 56 A5; assay: Drug treatment of single cell clone KO 56 A5; conditions: ten day drug treatment
# [13] = tested on: MCF7 TP53 KO 56 A6; assay: Drug treatment of single cell clone KO 56 A6; conditions: ten day drug treatment
# [14] = tested on: MCF7 TP53 KO 56 A7; assay: Drug treatment of single cell clone KO 56 A7; conditions: ten day drug treatment; also: unit not given here
# [15] = tested on: MCF7 TP53 KO 56 A8; assay: Drug treatment of single cell clone KO 56 A8; conditions: ten day drug treatment
# [16] = tested on: MCF7 TP53 KO 56 C5; assay: Drug treatment of single cell clone KO 56 C5; conditions: ten day drug treatment
# [17] = tested on: MCF7 TP53 KO 56 E1; assay: Drug treatment of single cell clone KO 56 E1; conditions: ten day drug treatment; also: unit not given here
# [18] = tested on: MCF7 TP53 KO 56 E3; assay: Drug treatment of single cell clone KO 56 E3; conditions: ten day drug treatment
# [19] = ten-day drug treatment, 156.25 nM to 10 μM, resazurin fluorescence
Molecule,"MCF7 WT Parental pool (AUC) [1, 19]","TP53 KO 3.4 pool (AUC) [2, 19]","TP53 KO 5.6 pool (AUC) [3, 19]",further results
O=c1[nH]cc(F)c(=O)[nH]1 [Fluorouracil],6.548,3.782,4.286,"area under the curve (AUC) [1]: 2.156; area under the curve (AUC) ([2]; KO 34 Pool, ten day drug treatment (Table 3)): 1.721; area under the curve (AUC) ([3]; KO 56 Pool, ten day drug treatment (Table 3)): 1.745; area under the curve (AUC) [4]: 2.126; area under the curve (AUC) [5]: 1.886; area under the curve (AUC) [6]: 2.105; area under the curve (AUC) [7]: 2.265; area under the curve (AUC) [8]: 1.618; area under the curve (AUC) [9]: 1.812; area under the curve (AUC) [10]: 1.945; area under the curve (AUC) [11]: 1.716; area under the curve (AUC) [12]: 1.46; area under the curve (AUC) [13]: 1.811; area under the curve (AUC) [14]: 1.81; area under the curve (AUC) [15]: 2.02; area under the curve (AUC) [16]: 1.826; area under the curve (AUC) [17]: 1.697; area under the curve (AUC) [18]: 1.645"
COc1ccc(C2=N[C@@H](c3ccc(Cl)cc3)[C@@H](c3ccc(Cl)cc3)N2C(=O)N2CCNC(=O)C2)c(OC(C)C)c1 [Nutlin3],3.686,–,–,area under the curve (AUC) [1]: 1.16; area under the curve (AUC) [4]: 0.9589; area under the curve (AUC) [5]: 0.8828; area under the curve (AUC) [6]: 1.042; area under the curve (AUC) [7]: 1.011
O=C(CCBr)N1CCN(C(=O)CCBr)CC1 [Pipobroman],8.767,8.997,7.66,–
c1cc(CN2CCCNCCNCCCNCC2)ccc1CN1CCCNCCNCCCNCC1 [Plerixafor],9,8.893,8.524,–
Nc1cccc2c1C(=O)N(C1CCC(=O)NC1=O)C2=O (stereo not drawn) [Pomalidomide],10.08,9.902,10.13,–
Cc1ccc(C(=O)Nc2ccc(CN3CCN(C)CC3)c(C(F)(F)F)c2)cc1C#Cc1cnc2cccnn12 [Ponatinib],–,–,–,MCF7 WT Parental pool (AUC) [1]: 3.312; TP53 KO 3.4 pool (AUC) [2]: 2.944; TP53 KO 5.6 pool (AUC) [3]: 3.632
C#CCC(Cc1cnc2nc(N)nc(N)c2n1)c1ccc(C(=O)N[C@@H](CCC(=O)O)C(=O)O)cc1 (stereo partly drawn) [Pralatrexate],2.822,2.774,2.86,–
CNNCc1ccc(C(=O)NC(C)C)cc1 [Procarbazine Hydrochloride],8.119,10.04,10.7,–
O=C(c1ccc(OCCN2CCCCC2)cc1)c1c(-c2ccc(O)cc2)sc2cc(O)ccc12 [Raloxifene],5.361,6.017,6.562,–
CNC(=O)c1cc(Oc2ccc(NC(=O)Nc3ccc(Cl)c(C(F)(F)F)c3)c(F)c2)ccn1 [Regorafenib],3.995,5.541,5.25,–
C/C=C1\NC(=O)[C@H]2CSSCC/C=C/[C@H](CC(=O)N[C@H](C(C)C)C(=O)N2)OC(=O)[C@H](C(C)C)NC1=O [Romidepsin],–,–,–,MCF7 WT Parental pool (AUC) [1]: 0.5862; TP53 KO 3.4 pool (AUC) [2]: 0.6551; TP53 KO 5.6 pool (AUC) [3]: 0.5264
CN1CCN(C(=O)c2ccc3cc(CCNc4ncnc5ccc(C#N)cc45)ccc3c2)CC1 [SenexinB],5.203,6.869,6.954,–
CO[C@H]1C[C@@H]2CC[C@@H](C)[C@@](O)(O2)C(=O)C(=O)N2CCCC[C@H]2C(=O)O[C@H]([C@H](C)C[C@@H]2CC[C@@H](O)[C@H](OC)C2)CC(=O)[C@H](C)/C=C(\C)[C@@H](O)[C@@H](OC)C(=O)[C@H](C)C[C@H](C)/C=C/C=C/C=C/1C [Sirolimus],2.534,2.623,3.106,–
CN(N=O)C(=O)N[C@@H](C=O)[C@@H](O)[C@H](O)[C@H](O)CO [Streptozocin],9.145,10.58,9.912,–
CCN(CC)CCNC(=O)c1c(C)[nH]c(/C=C2\C(=O)Nc3ccc(F)cc32)c1C [Sunitinib],3.556,3.076,3.758,–
CC/C(=C(\c1ccccc1)c1ccc(OCCN(C)C)cc1)c1ccccc1 [TamoxifenCitrate],7.863,5.949,7.798,–
Cn1nnc2c(C(N)=O)ncn2c1=O [Temozolomide],9.187,9.565,10.06,–
COc1cc([C@@H]2c3cc4c(cc3[C@@H](O[C@@H]3O[C@@H]5CO[C@@H](c6cccs6)O[C@H]5[C@H](O)[C@H]3O)[C@H]3COC(=O)[C@H]23)OCO4)cc(OC)c1O [Teniposide],1.342,0.9417,1.041,–

Molecule,"MCF7 WT Parental pool (AUC) [1, 19]","TP53 KO 3.4 pool (AUC) [2, 19]","TP53 KO 5.6 pool (AUC) [3, 19]",further results
O=C1CCC(N2C(=O)c3ccccc3C2=O)C(=O)N1 (stereo not drawn) [Thalidomide],7.13,9.18,10.21,–
S=P(N1CC1)(N1CC1)N1CC1 [Thiotepa],–,–,–,MCF7 WT Parental pool (AUC) [1]: 3.965; TP53 KO 3.4 pool (AUC) [2]: 5.443; TP53 KO 5.6 pool (AUC) [3]: 5.535
CC[C@@]1(O)C(=O)OCc2c1cc1n(c2=O)Cc2cc3c(CN(C)C)c(O)ccc3nc2-1 [Topotecan Hydrochloride],0.7919,0.7814,0.8044,–
CC(=O)Nc1cccc(-n2c(=O)n(C3CC3)c(=O)c3c(Nc4ccc(I)cc4F)n(C)c(=O)c(C)c32)c1 [Trametinib],7.726,6.641,8.533,–
CC1=C(/C=C/C(C)=C/C=C/C(C)=C/C(=O)O)C(C)(C)CCC1 [Tretinoin],7.394,7.809,7.997,–
C1CN1c1nc(N2CC2)nc(N2CC2)n1 [Triethyleneme1amine],2.223,2.224,2.319,–
Oc1ncc(N(CCCl)CCCl)c(O)n1 [UracilMustard],–,–,–,MCF7 WT Parental pool (AUC) [1]: 9.331; TP53 KO 3.4 pool (AUC) [2]: 9.337; TP53 KO 5.6 pool (AUC) [3]: 9.516
CCCCC(=O)OCC(=O)[C@]1(O)Cc2c(O)c3c(c(O)c2[C@@H](O[C@H]2C[C@H](NC(=O)C(F)(F)F)[C@H](O)[C@H](C)O2)C1)C(=O)c1c(OC)cccc1C3=O [Valrubicin],1.194,1.25,1.05,–
COc1cc2c(Nc3ccc(Br)cc3F)ncnc2cc1OCC1CCN(C)CC1 [Vandetanib],2.871,2.831,3.022,–
CCCS(=O)(=O)Nc1ccc(F)c(C(=O)c2c[nH]c3ncc(-c4ccc(Cl)cc4)cc23)c1F [Vemurafenib],8.722,7.987,8.365,–
CC[C@]1(O)C[C@@H]2CN(CCc3c([nH]c4ccccc34)[C@@](C(=O)OC)(c3cc4c(cc3OC)N(C)[C@H]3[C@@](O)(C(=O)OC)[C@H](OC(C)=O)[C@]5(CC)C=CCN6CC[C@]43[C@@H]65)C2)C1 [Vinblastine Sulfate],1.393,1.54,1.382,–
CC[C@]1(O)C[C@H]2CN(CCc3c([nH]c4ccccc34)[C@@](C(=O)OC)(c3cc4c(cc3OC)N(C=O)[C@H]3[C@@](O)(C(=O)OC)[C@H](OC(C)=O)[C@]5(CC)C=CCN6CC[C@]43[C@@H]65)C2)C1 [Vincristine Sulfate],1.668,1.776,1.54,–
CS(=O)(=O)c1ccc(C(=O)Nc2ccc(Cl)c(-c3ccccn3)c2)c(Cl)c1 [Vismodegib],8.801,8.017,8.363,–
O=C(CCCCCCC(=O)Nc1ccccc1)NO [Vorinostat],2.073,2.202,2.114,–
O=P(O)(O)C(O)(Cn1ccnc1)P(=O)(O)O [Zoledronic Acid],9.222,9.268,9.417,–
Arsenic Trioxide,5.018,5.242,5.373,–
Bleomycin Sulfate,3.922,4.694,3.421,–

# — US20190309272A1, “Genetically Modified Cell Lines Including a TP53 Modification and Methods of Use” (UNIVERSITY OF SOUTH CAROLINA, priority 2018, published 2019)
